Data as given in the supplement of paper PMC10307832.

Experiments:
Experiment in all cases: relative viability (nuclei count vs DMSO), 5 days (fraction); higher = more cells survive
CAP-232 + Foretinib = compound: C[C@H]([C@@H](C(=O)N)NC(=O)[C@@H]1CSSC[C@@H](C(=O)N[C@H](C(=O)N[C@@H](C(=O)N[C@H](C(=O)N1)CCCCN)CC2=CNC3=CC=CC=C32)CC4=CC=C(C=C4)O)NC(=O)[C@@H](CC5=CC=CC=C5)N)O [CAP-232] + COc1cc2c(Oc3ccc(NC(=O)C4(C(=O)Nc5ccc(F)cc5)CC4)cc3F)ccnc2cc1OCCCN1CCOCC1 [Foretinib] (partner 0.25 µM)
Procedure, shortened: (§1)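 Relative viability equals treated-well nuclei counts divided by vehicle-well nuclei counts. Counts came from 4× images of lung cancer cell lines grown in 1536-well plates for 5 days after pin-tool dosing on the day after seeding. Dosing used one drug alone or a fixed anchor-drug dose plus five library-drug doses (not always all listed) in √10 steps, and values are medians of duplicate plates.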

CAP-232 + Tozasertib = compound: C[C@H]([C@@H](C(=O)N)NC(=O)[C@@H]1CSSC[C@@H](C(=O)N[C@H](C(=O)N[C@@H](C(=O)N[C@H](C(=O)N1)CCCCN)CC2=CNC3=CC=CC=C32)CC4=CC=C(C=C4)O)NC(=O)[C@@H](CC5=CC=CC=C5)N)O [CAP-232] + Cc1cc(Nc2cc(N3CCN(C)CC3)nc(Sc3ccc(NC(=O)C4CC4)cc3)n2)n[nH]1 [Tozasertib] (partner 0.1 µM)
Procedure, shortened: as §1

CAP-232 + Dasatinib = compound: C[C@H]([C@@H](C(=O)N)NC(=O)[C@@H]1CSSC[C@@H](C(=O)N[C@H](C(=O)N[C@@H](C(=O)N[C@H](C(=O)N1)CCCCN)CC2=CNC3=CC=CC=C32)CC4=CC=C(C=C4)O)NC(=O)[C@@H](CC5=CC=CC=C5)N)O [CAP-232] + Cc1nc(Nc2ncc(C(=O)Nc3c(C)cccc3Cl)s2)cc(N2CCN(CCO)CC2)n1 [Dasatinib] (partner 0.075 µM)
Procedure, shortened: as §1

CAP-232 + Decitabine = compound: C[C@H]([C@@H](C(=O)N)NC(=O)[C@@H]1CSSC[C@@H](C(=O)N[C@H](C(=O)N[C@@H](C(=O)N[C@H](C(=O)N1)CCCCN)CC2=CNC3=CC=CC=C32)CC4=CC=C(C=C4)O)NC(=O)[C@@H](CC5=CC=CC=C5)N)O [CAP-232] + Nc1ncn([C@H]2C[C@H](O)[C@@H](CO)O2)c(=O)n1 [Decitabine] (partner 2 µM)
Procedure, shortened: as §1

CAP-232 + Navitoclax = compound: C[C@H]([C@@H](C(=O)N)NC(=O)[C@@H]1CSSC[C@@H](C(=O)N[C@H](C(=O)N[C@@H](C(=O)N[C@H](C(=O)N1)CCCCN)CC2=CNC3=CC=CC=C32)CC4=CC=C(C=C4)O)NC(=O)[C@@H](CC5=CC=CC=C5)N)O [CAP-232] + CC1(C)CCC(c2ccc(Cl)cc2)=C(CN2CCN(c3ccc(C(=O)NS(=O)(=O)c4ccc(N[C@H](CCN5CCOCC5)CSc5ccccc5)c(S(=O)(=O)C(F)(F)F)c4)cc3)CC2)C1 [Navitoclax] (partner 0.5 µM)
Procedure, shortened: as §1

## NCI-H358
CAP-232 + Foretinib; first compound 0.4 µM
  relative viability: 0.678
CAP-232 + Foretinib; first compound 1.265 µM
  relative viability: 0.841
CAP-232 + Foretinib; first compound 4 µM
  relative viability: 0.686
CAP-232 + Foretinib; first compound 12.65 µM
  relative viability: 0.563
CAP-232 + Tozasertib; first compound 0.4 µM
  relative viability: 0.102
CAP-232 + Tozasertib; first compound 1.265 µM
  relative viability: 0.115
CAP-232 + Tozasertib; first compound 4 µM
  relative viability: 0.089
CAP-232 + Tozasertib; first compound 12.65 µM
  relative viability: 0.0797
CAP-232 + Dasatinib; first compound 0.4 µM
  relative viability: 0.183
CAP-232 + Dasatinib; first compound 1.265 µM
  relative viability: 0.151
CAP-232 + Dasatinib; first compound 4 µM
  relative viability: 0.124
CAP-232 + Dasatinib; first compound 12.65 µM
  relative viability: 0.179
CAP-232 + Decitabine; first compound 0.4 µM
  relative viability: 0.184
CAP-232 + Decitabine; first compound 1.265 µM
  relative viability: 0.198
CAP-232 + Decitabine; first compound 4 µM
  relative viability: 0.229
CAP-232 + Decitabine; first compound 12.65 µM
  relative viability: 0.18

## NCI-H522
CAP-232 + Tozasertib; first compound 0.4 µM
  relative viability: 0.555
CAP-232 + Tozasertib; first compound 1.265 µM
  relative viability: 0.58
CAP-232 + Tozasertib; first compound 4 µM
  relative viability: 0.503
CAP-232 + Tozasertib; first compound 12.65 µM
  relative viability: 0.544
CAP-232 + Dasatinib; first compound 0.4 µM
  relative viability: 1.1
CAP-232 + Dasatinib; first compound 1.265 µM
  relative viability: 0.73
CAP-232 + Dasatinib; first compound 4 µM
  relative viability: 0.914
CAP-232 + Dasatinib; first compound 12.65 µM
  relative viability: 0.735
CAP-232 + Decitabine; first compound 0.4 µM
  relative viability: 0.677
CAP-232 + Decitabine; first compound 1.265 µM
  relative viability: 0.623
CAP-232 + Decitabine; first compound 4 µM
  relative viability: 0.572
CAP-232 + Decitabine; first compound 12.65 µM
  relative viability: 0.658

## NCI-H650
CAP-232 + Foretinib; first compound 0.4 µM
  relative viability: 1.01
CAP-232 + Foretinib; first compound 1.265 µM
  relative viability: 1
CAP-232 + Foretinib; first compound 4 µM
  relative viability: 0.969
CAP-232 + Foretinib; first compound 12.65 µM
  relative viability: 0.926
CAP-232 + Tozasertib; first compound 0.4 µM
  relative viability: 0.749
CAP-232 + Tozasertib; first compound 1.265 µM
  relative viability: 0.747
CAP-232 + Tozasertib; first compound 4 µM
  relative viability: 0.713
CAP-232 + Tozasertib; first compound 12.65 µM
  relative viability: 0.7
CAP-232 + Dasatinib; first compound 0.4 µM
  relative viability: 0.509
CAP-232 + Dasatinib; first compound 1.265 µM
  relative viability: 0.426
CAP-232 + Dasatinib; first compound 4 µM
  relative viability: 0.521
CAP-232 + Dasatinib; first compound 12.65 µM
  relative viability: 0.417
CAP-232 + Decitabine; first compound 0.4 µM
  relative viability: 0.342
CAP-232 + Decitabine; first compound 1.265 µM
  relative viability: 0.278
CAP-232 + Decitabine; first compound 4 µM
  relative viability: 0.278
CAP-232 + Decitabine; first compound 12.65 µM
  relative viability: 0.156

## NCI-H661
CAP-232 + Foretinib; first compound 0.4 µM
  relative viability: 0.986
CAP-232 + Foretinib; first compound 1.265 µM
  relative viability: 0.951
CAP-232 + Foretinib; first compound 4 µM
  relative viability: 1.05
CAP-232 + Foretinib; first compound 12.65 µM
  relative viability: 1.02
CAP-232 + Tozasertib; first compound 0.4 µM
  relative viability: 0.367
CAP-232 + Tozasertib; first compound 1.265 µM
  relative viability: 0.372
CAP-232 + Tozasertib; first compound 4 µM
  relative viability: 0.347
CAP-232 + Tozasertib; first compound 12.65 µM
  relative viability: 0.329
CAP-232 + Dasatinib; first compound 0.4 µM
  relative viability: 0.971
CAP-232 + Dasatinib; first compound 1.265 µM
  relative viability: 0.663
CAP-232 + Dasatinib; first compound 4 µM
  relative viability: 0.96
CAP-232 + Dasatinib; first compound 12.65 µM
  relative viability: 0.648
CAP-232 + Decitabine; first compound 0.4 µM
  relative viability: 0.546
CAP-232 + Decitabine; first compound 1.265 µM
  relative viability: 0.543
CAP-232 + Decitabine; first compound 4 µM
  relative viability: 0.583
CAP-232 + Decitabine; first compound 12.65 µM
  relative viability: 0.446

## NCI-H1563
CAP-232 + Foretinib; first compound 0.4 µM
  relative viability: 0.972
CAP-232 + Foretinib; first compound 1.265 µM
  relative viability: 0.886
CAP-232 + Foretinib; first compound 4 µM
  relative viability: 0.939
CAP-232 + Foretinib; first compound 12.65 µM
  relative viability: 0.639
CAP-232 + Dasatinib; first compound 0.4 µM
  relative viability: 0.449
CAP-232 + Dasatinib; first compound 1.265 µM
  relative viability: 0.448
CAP-232 + Dasatinib; first compound 4 µM
  relative viability: 0.477
CAP-232 + Dasatinib; first compound 12.65 µM
  relative viability: 0.432

## NCI-H1703
CAP-232 + Navitoclax; first compound 0.4 µM
  relative viability: 1.09
CAP-232 + Navitoclax; first compound 1.265 µM
  relative viability: 0.901
CAP-232 + Navitoclax; first compound 4 µM
  relative viability: 0.964
CAP-232 + Navitoclax; first compound 12.65 µM
  relative viability: 0.793
CAP-232 + Foretinib; first compound 0.4 µM
  relative viability: 0.304
CAP-232 + Foretinib; first compound 1.265 µM
  relative viability: 0.364
CAP-232 + Foretinib; first compound 4 µM
  relative viability: 0.323
CAP-232 + Foretinib; first compound 12.65 µM
  relative viability: 0.409

## NCI-H1792
CAP-232 + Navitoclax; first compound 0.4 µM
  relative viability: 1.2
CAP-232 + Navitoclax; first compound 1.265 µM
  relative viability: 0.638
CAP-232 + Navitoclax; first compound 4 µM
  relative viability: 0.656
CAP-232 + Navitoclax; first compound 12.65 µM
  relative viability: 0.452
CAP-232 + Dasatinib; first compound 0.4 µM
  relative viability: 0.811
CAP-232 + Dasatinib; first compound 1.265 µM
  relative viability: 0.743
CAP-232 + Dasatinib; first compound 4 µM
  relative viability: 0.95
CAP-232 + Dasatinib; first compound 12.65 µM
  relative viability: 0.78
CAP-232 + Decitabine; first compound 0.4 µM
  relative viability: 0.636
CAP-232 + Decitabine; first compound 1.265 µM
  relative viability: 0.54
CAP-232 + Decitabine; first compound 4 µM
  relative viability: 0.555
CAP-232 + Decitabine; first compound 12.65 µM
  relative viability: 0.365

## NCI-H2228
CAP-232 + Navitoclax; first compound 0.4 µM
  relative viability: 0.84
CAP-232 + Navitoclax; first compound 1.265 µM
  relative viability: 0.96
CAP-232 + Navitoclax; first compound 4 µM
  relative viability: 0.473
CAP-232 + Navitoclax; first compound 12.65 µM
  relative viability: 1.01
CAP-232 + Foretinib; first compound 0.4 µM
  relative viability: 0.826
CAP-232 + Foretinib; first compound 1.265 µM
  relative viability: 0.938
CAP-232 + Foretinib; first compound 4 µM
  relative viability: 1.09
CAP-232 + Foretinib; first compound 12.65 µM
  relative viability: 0.485
CAP-232 + Tozasertib; first compound 0.4 µM
  relative viability: 0.257
CAP-232 + Tozasertib; first compound 1.265 µM
  relative viability: 0.28
CAP-232 + Tozasertib; first compound 4 µM
  relative viability: 0.195
CAP-232 + Tozasertib; first compound 12.65 µM
  relative viability: 0.263
CAP-232 + Dasatinib; first compound 0.4 µM
  relative viability: 0.482
CAP-232 + Dasatinib; first compound 1.265 µM
  relative viability: 0.565
CAP-232 + Dasatinib; first compound 4 µM
  relative viability: 0.479
CAP-232 + Dasatinib; first compound 12.65 µM
  relative viability: 0.365

## NCI-H2342
CAP-232 + Foretinib; first compound 0.4 µM
  relative viability: 0.944
CAP-232 + Foretinib; first compound 1.265 µM
  relative viability: 1.03
CAP-232 + Foretinib; first compound 4 µM
  relative viability: 0.995
CAP-232 + Foretinib; first compound 12.65 µM
  relative viability: 0.995
CAP-232 + Tozasertib; first compound 0.4 µM
  relative viability: 0.479
CAP-232 + Tozasertib; first compound 1.265 µM
  relative viability: 0.459
CAP-232 + Tozasertib; first compound 4 µM
  relative viability: 0.436
CAP-232 + Tozasertib; first compound 12.65 µM
  relative viability: 0.437
CAP-232 + Dasatinib; first compound 0.4 µM
  relative viability: 0.308
CAP-232 + Dasatinib; first compound 1.265 µM
  relative viability: 0.334
CAP-232 + Dasatinib; first compound 4 µM
  relative viability: 0.291
CAP-232 + Dasatinib; first compound 12.65 µM
  relative viability: 0.321
CAP-232 + Decitabine; first compound 0.4 µM
  relative viability: 0.714
CAP-232 + Decitabine; first compound 1.265 µM
  relative viability: 0.81
CAP-232 + Decitabine; first compound 4 µM
  relative viability: 0.736
CAP-232 + Decitabine; first compound 12.65 µM
  relative viability: 0.666

## SW 900
CAP-232 + Foretinib; first compound 0.4 µM
  relative viability: 0.819
CAP-232 + Foretinib; first compound 1.265 µM
  relative viability: 0.816
CAP-232 + Foretinib; first compound 4 µM
  relative viability: 0.96
CAP-232 + Foretinib; first compound 12.65 µM
  relative viability: 0.858
CAP-232 + Tozasertib; first compound 0.4 µM
  relative viability: 0.658
CAP-232 + Tozasertib; first compound 1.265 µM
  relative viability: 0.593
CAP-232 + Tozasertib; first compound 4 µM
  relative viability: 0.583
CAP-232 + Tozasertib; first compound 12.65 µM
  relative viability: 0.582
CAP-232 + Dasatinib; first compound 0.4 µM
  relative viability: 0.644
CAP-232 + Dasatinib; first compound 1.265 µM
  relative viability: 0.614
CAP-232 + Dasatinib; first compound 4 µM
  relative viability: 0.64
CAP-232 + Dasatinib; first compound 12.65 µM
  relative viability: 0.591
CAP-232 + Decitabine; first compound 0.4 µM
  relative viability: 0.442
CAP-232 + Decitabine; first compound 1.265 µM
  relative viability: 0.369
CAP-232 + Decitabine; first compound 4 µM
  relative viability: 0.355
CAP-232 + Decitabine; first compound 12.65 µM
  relative viability: 0.454
